Key:
Pu27 G-quadruplex DNA = experiment: G-quadruplex fluorescent intercalator displacement (G4-FID) assay; format: binding
Description: The FID assay was performed as described. The Pu27 G-quadruplex DNA (0.25 μM) in Tris-HCl buffer (20 mM Tris, 100 mM KCl, pH 7.0) were annealed by heating at a temperature of 72-98° C., in particular 95° C., for at least 10 min. Indicated concentration of thiazole orange (0.5 μM for Pu27 G-quadruplex DNA and 0.5 μM for ds17) was added and the mixture was incubated for at least 30 minutes, in particular 1 hour. Emission measurement was taken after addition of each indicated concentration of complex 9 followed by an equilibration time for 5 minutes. The fluorescence area was converted into percentage of displacement (PD) by using the following equation. PD=100−[(FA/FA0)×100] (FA0=fluorescence area of DNA-TO complex in the absence of complex 9; FA=fluorescence area in the presence of complex 9).

HCV NS3 helicase = biological target: T1, HCV NS3 helicase (Hepatitis C virus genotype 1a, UniProt P27958); experiment: G-quadruplex-based luminescent HCV NS3 helicase activity assay; format: biochemical
T1 construct: upon the addition of 0.8 μM HCV NS3 helicase; purchased Prospec Inc. (Ness-Ziona, Israel)
Description: The random-coil oligonucleotides ON1 (100 μM) and ON2 (100 μM) were incubated in Tris buffer (20 mM, pH 7.0). The solution was heated at a temperature of 72-98° C., in particular 95° C., for at least 30 seconds in particular 10 min, cooled to room temperature at 0.1° C./s, and further incubated at room temperature for 1 hour to ensure formation of the duplex substrate. The annealed product was stored at −20° C. before use. For assaying enzyme activity, 50 μL of Tris buffered solution (5 mM Tris-HCl, 5 mM NaCl, 1 mM MgCl2, 1 mM ATP, 0.1 mM DTT, pH 7.9) with the indicated concentrations of helicase or S1, Endo, DpnI, ExoI, EcoRI, RNase, DNase, and SSB were added to a solution containing the duplex substrate (0.25 μM). The mixture was heated to 37° C. for at least 30 minutes, e.g. 2 hours, to allow the indicated enzymes-catalyzed unwinding of the duplex substrate to take place. The duplex unwinding reaction was quenched by the addition of EDTA at a final concentration of 20 mM, and the mixture was subsequently diluted using Tris buffer (20 mM Tris, 20 mM KCl, 150 mM NH4Ac, pH 7.2) to a final volume of 500 μL. […] Emission spectra were recorded in the 500-720 nm range using an excitation wavelength of 360 nm.
For the detection of helicase activity in cell extract, 50 μL of Tris buffered solution (5 mM Tris-HCl, 5 mM NaCl, 1 mM MgCl2, 1 mM ATP, 0.1 mM DTT, pH 7.9) and the indicated concentrations of helicase were added to a solution containing the duplex substrate (0.25 μM) and cell extract. The mixture was heated to 37° C. for at least 30 minutes, e.g. 2 hours, to allow the helicase-catalyzed unwinding of the duplex substrate to take place. The duplex unwinding reaction was quenched by the addition of EDTA at a final concentration of 20 mM, and the mixture was subsequently diluted using Tris buffer (20 mM Tris, 20 mM KCl, 150 mM NH4Ac, pH 7.2) to a final volume of 500 μL. Finally, 1 μM of complex 9 was added to the mixture. Emission spectra were recorded in the 500-720 nm range using an excitation wavelength of 360 nm.

PS2.M G-quadruplex DNA = experiment: Luminescence response of Ir(III) complexes towards different forms of DNA; format: binding; settings: complex 1 μM, DNA 5 μM
Excerpt: M G-quadruplex DNA (G4) over dsDNA (ds17) and ssDNA (CCRS-DEL), in particular IG4/IdsDNA refers to the ratio of the luminescent response of PS2. M G-quadruplex DNA over dsDNA (ds17); and IG4/IssDNA refers to the ratio of the luminescent response of PS2. M G-quadruplex DNA over ssDNA(CCR5-DEL).
M G-quadruplex DNA over dsDNA (ds17) and ssDNA (CCRS-DEL), in particular IG4/IdsDNA refers to the ratio of the luminescent response of PS2. M G-quadruplex DNA over dsDNA (ds17); and IG4/IssDNA refers to the ratio of the luminescent response of PS2. M G-quadruplex DNA over ssDNA(CCR5-DEL).
The G-quadruplex DNA-forming sequence (PS2. M) was annealed in Tris-HCl buffer (20 mM Tris, 100 mM KCl, pH 7.0) and were stored at −20° C. or less than −20° C. before use. Complex 1-17 (1 μM) was added to 5 μM of ssDNA, dsDNA or PS2. M G-quadruplex DNA in Tris-HCl buffer (20 mM Tris, pH 7.0).

[1] = Photophysical measurement; format: physicochemical
Description: Emission spectra and lifetime measurements for complexes were performed on a PTI TimeMaster C720 Spectrometer (Nitrogen laser: pulse output 337 nm) fitted with a 380 nm filter. Error limits were estimated: λ (±1 nm); τ (±10%); φ (±10%). All solvents used for the lifetime measurements were degassed using three cycles of freeze-vac-thaw.
Luminescence quantum yields were determined using the method of Demas and Crosby [Ru(bpy)3][PF6]2 in degassed acetonitrile as a standard reference solution (Φr=0.062) and calculated according to the following equation:
Φs=Φr(Br/Bs)(ns/nr)^2(Ds/Dr) • where the subscripts s and r refer to sample and reference standard solution respectively, n is the refractive index of the solvents, D is the integrated intensity, and Φ is the luminescence quantum yield. The quantity B was calculated by B=1−10^−AL, where A is the absorbance at the excitation wavelength and L is the optical path length.

F10T dsDNA = experiment: FRET melting assay, duplex; format: binding; settings: F10T 0.2 μM, complex 9 5 μM
Description: (§1) The ability of complex 9 to stabilize G-quadruplex DNA was investigated using a fluorescence resonance energy transfer (FRET) melting assay. The labeled G-quadruplex-forming oligonucleotide F21T, consisting of a sequence 5′-FAM-(SEQ ID NO: 5)-TAMRA-3′ (donor fluorophore FAM: 6-carboxyfluorescein; acceptor fluorophore TAMRA: 6-carboxytetramethylrhodamine), was diluted to 200 nM in a potassium cacodylate buffer (100 mM KCl, pH 7.0), and then heated from room temperature to 95° C. in the presence of the indicated concentrations of complex 9. The labeled duplex-forming oligonucleotide F10T, consisting of a sequence 5′-FAM-[…]-HEG-(SEQ ID NO: 6)-3′ (HEG linker: [(—CH2—CH2—O—)6]), was treated in the same manner, except that the buffer was changed to 10 mM lithium cacodylate (pH 7.4). Fluorescence readings were taken at intervals of 0.5° C. in a range of 25 to 95° C.

helicase = biological target: T2, helicase (Hepatitis C virus genotype 1a, UniProt P27958); experiment: Luminescence response of complexes towards helicase alone
T2 construct: upon the addition of 0.8 μM HCV NS3 helicase; purchased Prospec Inc. (Ness-Ziona, Israel)
Excerpt: M G-quadruplex DNA over helicase, IG4/Ihelicase refers to the ratio of the lunminscent response of PS2. M G-quadruplex DNA over helicase.

F21T G-quadruplex DNA = experiment: FRET melting assay, G-quadruplex; format: binding; settings: F21T 0.2 μM, complex 9 5 μM
Description: as §1

T1 sequence (P27958 1027-1657): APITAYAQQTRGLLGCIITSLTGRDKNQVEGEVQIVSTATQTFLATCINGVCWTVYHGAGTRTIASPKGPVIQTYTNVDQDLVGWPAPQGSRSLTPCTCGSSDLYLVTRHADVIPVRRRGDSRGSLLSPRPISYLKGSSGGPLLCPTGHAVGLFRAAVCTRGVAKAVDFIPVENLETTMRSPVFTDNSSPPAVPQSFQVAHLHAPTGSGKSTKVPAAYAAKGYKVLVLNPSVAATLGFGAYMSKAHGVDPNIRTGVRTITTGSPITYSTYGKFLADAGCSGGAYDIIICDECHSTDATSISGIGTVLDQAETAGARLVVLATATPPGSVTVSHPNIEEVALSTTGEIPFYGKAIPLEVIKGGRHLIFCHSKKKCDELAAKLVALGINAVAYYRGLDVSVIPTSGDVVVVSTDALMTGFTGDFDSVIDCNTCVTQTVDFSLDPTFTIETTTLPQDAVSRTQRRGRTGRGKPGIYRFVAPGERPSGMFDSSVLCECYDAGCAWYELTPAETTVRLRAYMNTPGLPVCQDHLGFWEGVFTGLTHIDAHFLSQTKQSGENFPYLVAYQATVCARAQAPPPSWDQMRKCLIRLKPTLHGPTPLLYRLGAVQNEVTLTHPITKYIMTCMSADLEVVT
T2 sequence (P27958 1027-1657): as above

F[P-](F)(F)(F)(F)F.[Ir+3].[c-]1ccccc1-c1ccc2ccccc2n1.[c-]1ccccc1-c1ccc2ccccc2n1.c1cnc2c(c1)ccc1cccnc12 [Complex 9]
G4DC50, half-maximal concentration of compound required to displace 50% TO from DNA (Pu27 G-quadruplex DNA; Pu27 G-quadruplex DNA 0.25 μM, thiazole orange 0.5 μM, Tris-HCl buffer): ca. 5 μM | displacement of thiazole orange from G-quadruplex DNA compared with duplex DNA (Pu27 G-quadruplex DNA; Pu27 G-quadruplex vs ds17 duplex): higher efficacy than from duplex DNA | luminescence of complex 9 upon incubation with helicase and the ON1-ON2 duplex substrate (HCV NS3 helicase; ON1-ON2 duplex substrate, K+): significantly enhanced | luminescence of complex 9 in response to helicase for the mutant DNA sequences (HCV NS3 helicase; ON1m/ON2 duplex mutant 0.25 μM, helicase 0.9 μM, complex 9 1 μM): slight decrease | enhancement in luminescence of the system (HCV NS3 helicase; helicase concentration 0.9 μM): ca. 4.5 fold | luminescence intensity of the system with increasing helicase in cell extract (HCV NS3 helicase; reaction system containing 0.5% (v/v) cell extract): gradual increase in luminescence intensity | detection limit of the assay for helicase (HCV NS3 helicase; signal-to-noise ratio (S/N) of 3): 0.09 µM | luminescence response in the presence of the PS2.M G-quadruplex (PS2.M G-quadruplex DNA): significantly enhanced luminescence response | Lifetime [1]: 8.13 μs | λem [1]: 570 nm | Quantum yield ([1]; reference [Ru(bpy)3][PF6]2 in degassed acetonitrile): 0.12 | change in the melting temperature of F10T dsDNA (F10T dsDNA): 4 °C | change in luminescence intensity of the complex 9+G-quadruplex ensemble upon addition of helicase (helicase; 0.8 μM HCV NS3 helicase): no significant change | luminescence enhancement in the presence of helicase only (helicase; helicase alone, no DNA): no luminescence enhancement in the presence of helicase | increase of melting temperature (ΔTm) of F21T G-quadruplex (F21T G-quadruplex DNA): about 13 °C

— patent publication US20170145472A1, “METHOD OF DETECTING HELICASE ACTIVITY” (University of Macau, priority 2015, published 2017)
